What is called EC50 is the concentration that produces a half-maximal response. For orientation: IC50 means the concentration that gives 50% inhibition. The low end stands for inhibition by little substance, the high end for a need for much substance.

The experiment deals with CEM cells HIV-1 protection, formazan growth assay. In words: NCI AIDS Antiviral Assay. As to conditions: for IC50: measured here: growth of uninfected CEM cells. The method in brief:
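Five concentrations of each compound were applied to infected and uninfected human CEM cells. Protection from HIV-1 was judged from growth measured with a soluble formazan assay.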

The structures appear in SMILES notation. The source made the active and inactive calls.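 How the source made its calls: active means compounds giving half or more protection of infected cells from virus-caused growth loss, again on retest; inactive means the rest.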 Where a SMILES comes first, the peptide text is derived from it. Bridges are numbered along the chain shown (N, C = ends). The star is where a group is joined. Cbz = O=C(OCc1ccccc1)*; OBn = c1ccc(CO*)cc1 A value given as a limit tells only on which side of the number the result lay.

Regarding `CCCCCCCCCCCCCCCC(=O)Nc1ccn(C2CC(OP(=O)(O)OCC3OC(n4cc(C)c(=O)[nH]c4=O)CC3N=[N+]=[N-])C(CO)O2)c(=O)n1` (centres undefined), the EC50 was 0.813 µM and the concentration for half-maximal inhibition (IC50) is more than 100 µM. Take `FC(F)(F)c1ccc2c(c1)N(CCCN1CCNCC1)c1ccccc1S2`: the EC50 is more than 34.7 µM and the 50% inhibitory concentration (IC50) is 21.4 µM. In the case of `NC(=O)NC1=NCCC(=O)N1CCc1c[nH]c2ccccc12`, the EC50 was more than 200 µM and the IC50 turned out to be 12.3 µM. In the same order, the values of `COC(=O)c1cc2c(cc1CC(Cc1ccc3c(c1)CCCC3)C(=O)OC)CCCC2` (centres undefined) are more than 200 µM and 57.5 µM. As to `CCOC(=O)c1ccc(N2C(=S)N(C(=O)c3ccccc3)C(=Nc3ccccc3)C2=Nc2ccccc2)cc1`, the EC50 was more than 200 µM and the IC50 amounted to 2.82 µM. `CCN(CC)CCNC(=O)C1COc2ccc(-c3cc(=O)c4ccccc4o3)cc2O1` (centres undefined): the outcome was inactive. For `O=C1CCCCC1=O`, the outcome was inactive. Consider `Nc1ncnc2c1ncn2C1OC(CSC(F)(F)F)C(O)C1O` (centres undefined), for which the EC50 was more than 708 µM and the 50% inhibitory concentration (IC50) came out at 112 µM.

Consider `CN(C)COC(=S)[S-].CN(C)COC(=S)[S-].CN(C)COC(=S)[S-].[Fe+6]`, for which the EC50 was more than 2 µM and the IC50 was 0.363 µM. In the same order, the values of `COC(=O)CCC(C)C1CCC2C3=CC(=O)C4CC(OC(C)=O)CCC4(C)C3CC(OC(C)=O)C21C` (centres undefined) are more than 51.3 µM and 37.2 µM.

In the case of `CCCCCC(C)(O)C1=NCCN1` (centres undefined), the EC50 is more than 200 µM and the half-maximal inhibitory concentration (IC50) was more than 200 µM. In the case of `CCOc1ccc2ccccc2c1NC1=NCCO1`, the EC50 is more than 200 µM and the IC50 is 107 µM. For the molecule `C(=N\NC1=NCCCN1)/c1ccc2ccccc2c1`, the EC50 is more than 200 µM and the concentration for half-maximal inhibition (IC50) amounted to 8.32 µM.

Regarding `O=C(/C=C/c1ccc(Cl)cc1)NC1C=Nc2ccc([N+](=O)[O-])cc2NC1=O` (centres undefined), the EC50 is more than 200 µM and the 50% inhibitory concentration (IC50) is more than 200 µM. `CC(C)NC(=O)OCCN=c1c2ccccc2ccc2ccccc12`: the EC50 is more than 200 µM and the IC50 is 93.3 µM.

As to `NC(=S)N/N=C(\Cc1nc2ccc(Cl)cc2[nH]c1=O)C(=O)Nc1ccc(Cl)cc1`, the EC50 was more than 41.7 µM and the concentration for half-maximal inhibition (IC50) is more than 41.7 µM. Turning to `Cc1n(Cc2ccccc2)c2c([n+]1C)C(=O)c1ccccc1C2=O`, the EC50 is more than 562 µM and the concentration for half-maximal inhibition (IC50) turned out to be 0.178 µM. Consider `COc1ccc2c(c1)OC(c1ccccc1O)CC2=O` (centres undefined), for which the EC50 was more than 186 µM and the IC50 is 30.2 µM. Turning to `CCOC(=O)c1c(-c2ccc(Cl)cc2)c(C#N)c(=S)n(C2OC(CO)C(O)C(O)C2O)c1-c1ccccc1` (centres undefined), the EC50 is more than 200 µM and the IC50 worked out at 34.7 µM. As for `COc1ccc(C(=O)C(CN2CCOCC2)CN2CCOCC2)cc1`, the EC50 is more than 200 µM and the half-maximal inhibitory concentration (IC50) amounted to 1.32 µM. For `CCOC(=O)[C@H]1Nc2ccccc2C2c3ccccc3CC21` (some centres undefined), in that order: more than 64.6 µM and more than 64.6 µM. As for `COC(=O)C1=CCC(n2cnc3c(Cl)nc(N)nc32)CC1` (centres undefined), the EC50 is more than 115 µM and the IC50 stood at 47.9 µM. In the same order, the values of `O=C(Nc1ccc(Cl)cc1)c1cc2cc(N=Nc3ccccc3Cl)ccc2oc1=O` are more than 16.6 µM and more than 16.6 µM. As for `O=C1c2ccccc2S(=O)(=O)c2cc(-c3nn[nH]n3)ccc21`, the EC50 was more than 200 µM and the IC50 is more than 200 µM. Turning to `N/C(=C\c1ccc(/C=C(\NC(=O)c2ccccc2)c2nc3c([nH]2)C(=O)c2ccccc2C3=O)cc1)c1nc2c([nH]1)C(=O)c1ccccc1C2=O`, the result was inactive.

Consider `CCOC(=O)/C(C#N)=C\c1ccc([N+](=O)[O-])o1`, for which the EC50 was more than 1050 µM and the half-inhibitory concentration (IC50) is more than 1050 µM.

For `CC(=O)O[C@@H]1CC[C@]2(C)C3C[C@H](OC(C)=O)[C@]4(C)C(C(C)CCc5nc6ccccc6o5)CCC4C3[C@H](OC(C)=O)C[C@@H]2C1` (some centres undefined), the EC50 is more than 50.1 µM and the IC50 is 8.51 µM. With `CCCCC(CC)C(=O)OC(C)CN(CC(C)OC(=O)C(CC)CCCC)C(=O)C(C)OC(=O)C(CC)CCCC` (centres undefined), the result was inactive.

With `N=c1c2ccccc2nnn1Cc1ccccc1`, the EC50 was more than 178 µM and the IC50 is more than 178 µM.

On to `O=C(/C=C/c1ccccc1Cl)c1cccc2ccccc12`, for which the EC50 is more than 9.33 µM and the half-inhibitory concentration (IC50) was more than 9.33 µM. Consider `O=C1C(C(O)(C(F)(F)F)C(F)(F)F)CCC1C(O)(C(F)(F)F)C(F)(F)F` (centres undefined), for which the outcome was inactive. With `C/C(=N/O)C1CC(C)([N+](=O)[O-])CCC1(C)O` (centres undefined), the EC50 is more than 200 µM and the IC50 is more than 200 µM.

Turning to `O=C(c1ccccc1)C1C(c2ccccc2)S(=O)C(c2ccccc2)CC1(O)c1ccccc1` (centres undefined), the EC50 was more than 66.1 µM and the IC50 was 13.5 µM. `NC(N)=C1CN(C2CCCCC2)C(=O)NC1=O`: the EC50 was more than 1050 µM and the IC50 stood at 794 µM. On to `CCOC(=O)C(NC(=O)CC(C)C)(Nc1ccc(C(F)(F)F)cc1)C(F)(F)F` (centres undefined), for which the EC50 was more than 200 µM and the IC50 came out at 56.2 µM. For `CNC(=S)/N=C(\N)N(C)C`, the result was inactive. Take `Cc1cc(C)nc(NS(=O)(=O)c2ccc(NNc3c4ccccc4nc4c(C(=O)Nc5ccc(S(=O)(=O)Nc6ncccn6)cc5)cccc34)cc2)n1`: the EC50 is more than 200 µM and the IC50 was 29.5 µM. For the molecule `CN(C)CCN1C(=O)CN=C(c2ccccc2Cl)c2cc(Cl)ccc21`, the EC50 is more than 200 µM and the IC50 was 117 µM. Regarding `CCOC(=O)C(C)c1nc2cc(F)c(F)cc2[nH]c1=O` (centres undefined), the EC50 was more than 200 µM and the concentration for half-maximal inhibition (IC50) was more than 200 µM. Consider `Nc1ccc2[se]nc3c2c1C(=O)c1ccccc1-3`, for which the EC50 was more than 6.76 µM and the concentration for half-maximal inhibition (IC50) was more than 6.76 µM. Regarding `O=C1c2ccccc2C(=O)N1OCCCCON1C(=O)c2ccccc2C1=O`, the EC50 was more than 200 µM and the IC50 was more than 200 µM. As to `CCOC(=O)Cc1csc2[n+]1C(=O)/C(=C\c1cccc(Cl)c1Cl)S2`, the EC50 was more than 200 µM and the IC50 came to 21.4 µM. On to `OC1CN2CCC[C@@H](O)[C@@H]2C1O` (some centres undefined), for which the EC50 was more than 200 µM and the half-inhibitory concentration (IC50) is more than 200 µM. Turning to `COc1cc([C@@H]2C3C(=O)c4ccccc4C3[C@@H](c3cc(OC)c(OC)c(OC)c3)C23Cc2ccccc2C3=O)cc(OC)c1OC` (some centres undefined), the EC50 is more than 200 µM and the half-maximal inhibitory concentration (IC50) was 31.6 µM. As to `COC(=O)c1cc(O)ccc1NC(=O)c1ccc(O)cc1`, the EC50 is more than 912 µM and the IC50 turned out to be 363 µM. As to `Cn1cnc([N+](=O)[O-])c1S`, the EC50 is more than 200 µM and the half-inhibitory concentration (IC50) worked out at 67.6 µM.

Consider `CCc1n[nH]c(=O)n1/N=C/c1ccccc1O`, for which the EC50 is more than 200 µM and the IC50 was more than 200 µM. `COC(=O)C1CCC(=O)NCCCCC(NC(=O)C(CC(=O)OCc2ccccc2)NC(=O)OCc2ccccc2)C(=O)N1` (stereo not drawn) (Cbz-Asp(OBn)-Lys-Glu-OMe; lactam 2-3; configuration not given here): the EC50 was more than 200 µM and the IC50 was more than 200 µM. Consider `COc1ccc(CC2C(=O)NC(C)C(=O)N(C)C3Cc4ccc(cc4)Oc4cc(ccc4O)CC(C(=O)NC(C)C(=O)NC(C)C(=O)N2C)N(C)C3=O)cc1` (centres undefined), for which the EC50 was more than 0.2 µM and the half-maximal inhibitory concentration (IC50) turned out to be 0.0631 µM. In the case of `Cc1c(N/C=C(\C#N)C(=O)c2ccc(Cl)cc2)c(=O)n(-c2ccccc2)n1C`, the EC50 is more than 200 µM and the half-maximal inhibitory concentration (IC50) came to 72.4 µM.

The values are drawn from PubChem BioAssay AID179 (DTP/NCI, 2004).
